Results taken from the supplement of paper PMC9663587.

Key:
Assay in all cases: area over the GR curve, 72 h; higher = more effect;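 further: Dye Drop or Deep Dye Drop imaging of viable cells in 384-well plates (Hoechst nuclei, LIVE/DEAD dye), nine half-log doses, GR normalized to DMSO controls and time-zero plates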
MDAMB436 = tested on: MDAMB436
HCC1143 = tested on: HCC1143
CAL851 = tested on: CAL851
MDAMB330 = tested on: MDAMB330
BT20 = tested on: BT20
PDX1328 = tested on: PDX1328
SUM149 = tested on: SUM149
SUM185PE = tested on: SUM185PE
SUM159 = tested on: SUM159
MDAMB453 = tested on: MDAMB453
HCC1419 = tested on: HCC1419

SMILES	area over the GR curve (MDAMB436) [GR]	area over the GR curve (HCC1143) [GR]	area over the GR curve (CAL851) [GR]	area over the GR curve (MDAMB330) [GR]	area over the GR curve (BT20) [GR]	area over the GR curve (PDX1328) [GR]	area over the GR curve (SUM149) [GR]	area over the GR curve (SUM185PE) [GR]	area over the GR curve (SUM159) [GR]	area over the GR curve (MDAMB453) [GR]	area over the GR curve (HCC1419) [GR]	area over the GR curve (MDAMB436; main component drawn) [GR]	area over the GR curve (HCC1143; main component drawn) [GR]	area over the GR curve (CAL851; main component drawn) [GR]	area over the GR curve (BT20; main component drawn) [GR]	area over the GR curve (PDX1328; main component drawn) [GR]	area over the GR curve (SUM149; main component drawn) [GR]	area over the GR curve (SUM159; main component drawn) [GR]	area over the GR curve (MDAMB453; main component drawn) [GR]	area over the GR curve (HCC1419; main component drawn) [GR]
Cc1nc(NC(=O)N2CCC[C@H]2C(N)=O)sc1-c1ccnc(C(C)(C)C(F)(F)F)c1 [Alpelisib/BYL719] (max 10 µM)	0.0552	0.174	0.194	0.279	0.201	0.241	0.0367	0.36	0.056	0.335	0.356									
CN(C)C/C=C/C(=O)Nc1ccc(O[C@@H]2CCC[C@@H](Nc3ncc(Cl)c(-c4c[nH]c5ccccc45)n3)C2)cc1 [BSJ-01-175] (max 10 µM)	0.82	0.684	0.822	1.22	0.812	0.898	0.747	0.597	0.646	1.08	0.39									
CC(=O)c1c(C)c2cnc(Nc3ccc(N4CCN(CCOCCOCCOCCNC(=O)COc5cccc6c5C(=O)N(C5CCC(=O)NC5=O)C6=O)CC4)cn3)nc2n(C2CCCC2)c1=O (centres undefined) [BSJ-03-123] (max 10 µM)	0.0446	0.265	0.405	0.443	0.423	0.31	0.293	0.156	0.265	0.267	0.415									
CC(C)Nc1cc(-c2c[nH]c(C(=O)N[C@H](CO)c3cccc(Cl)c3)c2)c(Cl)cn1 [BVD523] (max 10 µM)	0.0948	0.27	0.2	0.133	0.132	0.102	0.233	-0.0633	0.254	0.0704	0.0554									
Cc1c(N)nc([C@H](CC(N)=O)NC[C@H](N)C(N)=O)nc1C(=O)N[C@H](C(=O)N[C@H](C)[C@@H](O)[C@H](C)C(=O)N[C@H](C(=O)NCCc1nc(-c2nc(C(=O)NCCC[S+](C)C)cs2)cs1)[C@@H](C)O)[C@@H](OC1OC(CO)C(O)C(O)C1OC1OC(CO)C(O)C(OC(N)=O)C1O)c1cnc[nH]1 (some centres undefined) [Bleomycin] (max 10 µM)												0.309	0.658	0.385	0.376	0.199	0.683	0.463	0.198	0.141
Nc1cc(C(F)(F)F)c(-c2cc(N3CCOCC3)nc(N3CCOCC3)n2)cn1 [Buparlisib/NVP-BKM120] (max 10 µM)	0.292	0.392	0.442	0.442	0.359	0.395	0.248	0.299	0.184	0.331	0.45									
COc1cc2nccc(Oc3ccc(NC(=O)C4(C(=O)Nc5ccc(F)cc5)CC4)cc3)c2cc1OC [Cabozantinib] (max 10 µM)	0.0531	0.102	0.123	0	0.0446	0.0918	0.0344	-0.023	0.059	-0.0455	-0.0617									
COc1cc2c(Oc3ccc4[nH]c(C)cc4c3F)ncnc2cc1OCCCN1CCCC1 [Cediranib/AZD2171] (max 10 µM)	0.161	0.165	0.179	0.105	0.0199	0.162	0.0456	0.582	0.0309	0.126	0.0482									
Cc1cc(Nc2ncc(Cl)c(Nc3ccccc3S(=O)(=O)C(C)C)n2)c(OC(C)C)cc1C1CCNCC1 [Ceritinib/LDK378] (max 10 µM)	0.415	0.285	0.372	0.187	0.255	0.416	0.249	0.261	0.213	0.461	0.206									
N.N.[Cl][Pt][Cl] [Cisplatin] (max 10 µM)	0.36	0.303	0.221		0.334	0.287	0.355		0.137	0.0713	0.223									
Cc1nc(Nc2ncc(C(=O)Nc3c(C)cccc3Cl)s2)cc(N2CCN(CCO)CC2)n1 [Dasatinib] (max 10 µM)	0.102	0.447	0.57	0.183	0.329	0.819	0.52	0.455	0.0885	0.0776	0.311									
COc1cccc2c1C(=O)c1c(O)c3c(c(O)c1C2=O)C[C@@](O)(C(=O)CO)C[C@@H]3O[C@H]1C[C@H](N)[C@H](O)[C@H](C)O1 [Doxorubicin] (max 3.162 µM)	0.706	0.718	0.848	0.716	0.828	0.637	0.754	0.0881	0.624	0.786	0.59									
COc1cc([C@@H]2c3cc4c(cc3[C@@H](O[C@@H]3O[C@@H]5CO[C@@H](C)O[C@H]5[C@H](O)[C@H]3O)[C@H]3COC(=O)[C@H]23)OCO4)cc(OC)c1O [Etoposide] (max 10 µM)	0.434	0.384	0.406		0.459	0.35	0.527		0.413	0.362	0.32									
CO[C@H]1C[C@@H]2CC[C@@H](C)[C@@](O)(O2)C(=O)C(=O)N2CCCC[C@H]2C(=O)O[C@H]([C@H](C)C[C@@H]2CC[C@@H](OCCO)[C@H](OC)C2)CC(=O)[C@H](C)/C=C(\C)[C@@H](O)[C@@H](OC)C(=O)[C@H](C)C[C@H](C)/C=C/C=C/C=C/1C [Everolimus] (max 10 µM)	0.314	0.343	0.576	1.28	0.593	0.642	0.201	0.2	0.108	0.888	0.724									
CCC(=O)Nc1ccc(C(=O)Nc2ccc(Nc3ncc4c(n3)N(C)c3ccc(C)cc3C(=O)N4C)cc2)cc1 [FMF-03-145-1]	0.465	0.389	0.626	0.814	1.2	0.808	0.462	0.384	0.476	0.392	0.261									
COc1cc(N2CCN(C)CC2)ccc1Nc1ncc2c(n1)N(C)c1ccccc1C(=O)N2CC(F)(F)F [FMF-03-146-1]	-0.005	0.0546	0.0805	0.0128	0.0278	0.071	-0.0043	0.0495	0.0317	0.0207	0.0393									
CC[C@@]1(O)C(=O)OCc2c1cc1n(c2=O)Cc2cc3c(CN(C)C)c(O)ccc3nc2-1 [Topotecan] (max 10 µM)	0.877	0.904	0.843		1.03	1.07	0.941		0.864	0.926	0.99									
